Assay results from US20050054559A1, “Compounds for sustained release of orally delivered drugs” (priority 2000, published 2005).
Read-outs that look alike come from different tables or passages of the source. Square brackets hold non-standard residues; d marks the D form. Peptide text beside a SMILES is read from it. * marks the point of attachment. Bn = c1ccc(C*)cc1

What was measured:
hPEPT1 = target: T1, hPEPT1 (Homo sapiens, UniProt P46059); assay: Electrogenic transport in Xenopus oocytes expressing hPEPT1; type: cell-based; settings: for % Max. (Gly-Sar): hPEPT1-expressing oocytes, test compound 1 mM, relative to Gly-Sar; for transport by hPEPT1 (in words): summary of Example 34
T1 sequence (P46059 1-708): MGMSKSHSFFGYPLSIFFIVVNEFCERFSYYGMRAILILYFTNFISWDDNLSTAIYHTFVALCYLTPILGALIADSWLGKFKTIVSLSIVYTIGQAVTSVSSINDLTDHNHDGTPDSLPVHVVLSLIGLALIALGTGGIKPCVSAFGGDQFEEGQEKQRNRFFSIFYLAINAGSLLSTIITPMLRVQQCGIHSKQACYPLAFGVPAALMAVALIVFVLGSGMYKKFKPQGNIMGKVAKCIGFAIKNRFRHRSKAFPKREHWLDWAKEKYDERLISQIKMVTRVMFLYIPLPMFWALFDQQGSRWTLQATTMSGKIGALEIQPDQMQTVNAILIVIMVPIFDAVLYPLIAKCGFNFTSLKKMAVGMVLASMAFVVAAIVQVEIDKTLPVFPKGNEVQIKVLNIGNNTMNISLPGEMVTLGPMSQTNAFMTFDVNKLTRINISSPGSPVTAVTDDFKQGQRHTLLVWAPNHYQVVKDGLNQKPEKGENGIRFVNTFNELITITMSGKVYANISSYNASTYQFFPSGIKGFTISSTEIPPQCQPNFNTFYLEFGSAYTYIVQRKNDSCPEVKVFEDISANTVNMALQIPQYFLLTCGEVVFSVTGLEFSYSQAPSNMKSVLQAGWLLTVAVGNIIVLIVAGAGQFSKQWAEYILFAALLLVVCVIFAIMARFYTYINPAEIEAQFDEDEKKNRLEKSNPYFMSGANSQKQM
From the text: (§1) RNA preparation: Rat and human PEPT1 and PEPT2 transporter cDNAs were subcloned into a modified pGEM plasmid that contains 5′ and 3′ untranslated sequences from the Xenopus β-actin gene. These sequences increase RNA stability and protein expression. Plasmid cDNA was linearized and used as template for in vitro transcription (Epicentre Technologies transcription kit, 4:1 methylated:non-methylated GTP).
(§2) Xenopus oocyte isolation. Xenopus laevis frogs were anesthetized by immersion in Tricaine ([…] in deionized water) for 15 min. Oocytes were removed and digested in frog ringer solution (90 mM NaCl, 2 mM KCl, 1 mM MgCl2, 10 mM NaHEPES, pH 7.45, no CaCl2) with 1 mg/mL collagenase (Worthington Type 3) for 80-100 min with shaking. The oocytes were washed 6 times, and the buffer changed to frog ringer solution containing CaCl2 (1.8 mM). Remaining follicle cells were removed if necessary. Cells were incubated at 16° C., and each oocyte injected with […] RNA in […] solution.
(§3) Electrophysiology measurements. Transport currents were measured 2-14 days after injection, using a standard two-electrode electrophysiology set-up (Geneclamp 500 amplifier, Digidata 1320/PCLAMP software and ADInstruments hardware and software were used for signal acquisition). Electrodes ([…]) were microfabricated using a Sutter Instrument puller and filled with 3M KCl. The bath was directly grounded (transporter currents were less than 0.3 μA). Bath flow was controlled by an automated perfusion system (ALA Scientific Instruments, solenoid valves).
(§4) For transporter pharmacology, oocytes were clamped at −60 to −90 mV, and continuous current measurements acquired using PowerLab Software and an ADInstruments digitizer. Current signals were lowpass filtered at 20 Hz and acquired at 4-8 Hz. All bath and drug-containing solutions were frog ringers solution containing CaCl2. Drugs were applied for 10-30 seconds until the induced current reached a new steady-state level, followed by a control solution until baseline currents returned to levels that preceded drug application. The difference current (baseline subtracted from peak current during drug application) reflected the net movement of charge resulting from electrogenic transport and was directly proportional to tranport rate. Recordings were made from a single oocyte for up to 60 min, enabling 30-40 separate compounds to be tested per oocyte. […] To compare results between oocytes expressing different levels of transport activity, a saturating concentration of glycyl-sarcosine (1 mM) was used as a common reference to normalize results from test compounds. Using this normalization procedure Vmax (i.e. maximal induced current) for different compounds tested on different oocytes could be compared.

hPEPT2 = target: T2, hPEPT2 (Homo sapiens, UniProt Q16348); assay: Electrogenic transport in Xenopus oocytes expressing hPEPT2; type: cell-based; settings: test compound 1 mM, relative to Gly-Sar
T2 sequence (Q16348 1-729): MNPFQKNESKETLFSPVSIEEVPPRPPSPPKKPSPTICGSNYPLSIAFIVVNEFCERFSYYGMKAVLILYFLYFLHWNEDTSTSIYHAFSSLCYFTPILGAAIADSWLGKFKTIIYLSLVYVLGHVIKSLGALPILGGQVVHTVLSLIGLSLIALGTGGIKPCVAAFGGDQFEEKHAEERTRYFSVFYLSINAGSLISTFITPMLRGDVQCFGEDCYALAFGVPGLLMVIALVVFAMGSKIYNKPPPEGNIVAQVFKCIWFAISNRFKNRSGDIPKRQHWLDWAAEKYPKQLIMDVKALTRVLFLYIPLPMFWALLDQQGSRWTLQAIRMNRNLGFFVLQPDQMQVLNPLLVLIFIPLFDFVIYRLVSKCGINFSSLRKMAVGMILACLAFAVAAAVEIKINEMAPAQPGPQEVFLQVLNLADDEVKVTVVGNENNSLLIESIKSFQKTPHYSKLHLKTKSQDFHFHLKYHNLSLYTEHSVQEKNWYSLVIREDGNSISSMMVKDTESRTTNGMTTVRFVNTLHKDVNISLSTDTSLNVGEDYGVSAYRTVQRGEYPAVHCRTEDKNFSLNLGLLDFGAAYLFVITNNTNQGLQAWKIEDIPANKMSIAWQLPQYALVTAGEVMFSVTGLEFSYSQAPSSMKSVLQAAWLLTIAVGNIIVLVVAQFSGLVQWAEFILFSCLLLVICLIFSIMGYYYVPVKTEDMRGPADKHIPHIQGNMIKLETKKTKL
From the text: as §1, §2, §3, §4

IBAT [1] = target: T3, IBAT (Homo sapiens, UniProt Q12908); assay: Electrogenic transport in Xenopus oocytes expressing IBAT; type: cell-based; settings: for % Max. (GDC): relative to glycodeoxycholate
From the text: as §1, with “Human IBAT” for “Rat”, “LBAT Transporter” for “human PEPT1 and PEPT2 transporter”
as §2, §3
For transporter pharmacology, oocytes were clamped at −60 to −90 mV, and continuous current measurements acquired using PowerLab Software and an ADInstruments digitizer. Current signals were lowpass filtered at 20 Hz and acquired at 4-8 Hz. All bath and drug-containing solutions were frog ringers solution containing CaCl2. Drugs were applied for 10-30 seconds until the induced current reached a new steady-state level, followed by a control solution until baseline currents returned to levels that preceded drug application. The difference current (baseline subtracted from peak current during drug application) reflected the net movement of charge resulting from electrogenic transport and was directly proportional to tranport rate. Recordings were made from a single oocyte for up to 60 min, enabling 30-40 separate compounds to be tested per oocyte. […]. Using this normalization procedure Vmax (i.e. maximal induced current) for different compounds tested on different oocytes could be compared.

[2] = in rats; Salach et al, Pharm. Res. 1994; cited from earlier work
LBAT = target: T4, LBAT (Homo sapiens, UniProt Q14973); assay: Inhibition of radiolabeled taurocholate uptake in LBAT-transfected CHO cells; type: cell-based; settings: radiolabeled competition assay in transporter-expressing CHO cells
T4 construct: expressed in transfected cells; host or cells: CHO cells
Protocol: (§5) CHO cells transfected with either the IBAT or LBAT transporter were seeded into 96-well microtiter plates at 100,000 cells/well in 100 μL DMEM containing 10% serum, glutamine and Penstrep. After overnight incubation the media was removed and test compound (25 μL) added at 2× the final desired concentration. Tritiated taurocholate (50,000 CPM/well) was diluted with cold substrate to a final concentration of 5 μM and 25 μL/well of this mixture was added to the plate. After incubating for 1 h at room temperature the solution was removed and the plate washed 4× with PBS at 4° C. 200 μL/well of scintillant is added and the plate then read in a Wallac microbeta counter. The inhibition data is processed by standard methods to calculate an inhibition constant Ki for the test compound.

IBAT [3] = target: T3, IBAT; assay: Inhibition of radiolabeled taurocholate uptake in IBAT-transfected CHO cells; type: cell-based; set-up: expressed in transfected cells; host or cells: CHO cells; settings: radiolabeled competition assay in transporter-expressing CHO cells
Protocol: as §5

[4] = Pharmacokinetics in rats following oral administration (Examples 38 and 40); settings: male, Sprague-Dawley, rat, in vivo, 25 mg/kg
Protocol: (§6) The pharmacokinetics of the prodrug (4) were examined in rats. Three groups of four male Sprague-Dawley rats (approx 200 g) with jugular cannulae each received one of the following treatments: A) a single bolus intravenous injection of gabapentin (25 mg/kg, as a solution in water); B) a single oral dose of gabapentin (25 mg/kg, as a solution in water) administered by oral gavage; C) a single oral dose of (4) (85.25 mg/kg, as a solution in water) administered by oral gavage. Animals were fasted overnight prior to dosing and until 4 hours post-dosing. Serial blood samples were obtained over 24 hours following dosing and blood was processed for plasma by centrifugation. Plasma samples were stored at −80° C. until analyzed. Concentrations of (4) or gabapentin in plasma samples were determined by LC/MS/MS as described in Example 35. Plasma (50 μL) was precipitated by addition of […] of methanol and supernatent was injected directly onto the LC/MS/MS system. The method was linear for gabapentin over the concentration range 0.001 to 20 ng/mL and for (4) over the concentration range 0.01 to 10 ng/mL.
as §6, with “prodrug Cholyl-Phe-Gabapentin (7g)” for “prodrug (4)”, “of (7g) (103.5” for “of (4) (85.25”, “of (7g)” for “of (4)”, “or (2)” for “or gabapentin”, “described above.” for “described in Example 35.”, “system.” for “system. The method was linear for gabapentin over the concentration range 0.001 to 20 ng/mL and for (4) over the concentration range 0.01 to 10 ng/mL.”

T4 sequence (Q14973 whole entry): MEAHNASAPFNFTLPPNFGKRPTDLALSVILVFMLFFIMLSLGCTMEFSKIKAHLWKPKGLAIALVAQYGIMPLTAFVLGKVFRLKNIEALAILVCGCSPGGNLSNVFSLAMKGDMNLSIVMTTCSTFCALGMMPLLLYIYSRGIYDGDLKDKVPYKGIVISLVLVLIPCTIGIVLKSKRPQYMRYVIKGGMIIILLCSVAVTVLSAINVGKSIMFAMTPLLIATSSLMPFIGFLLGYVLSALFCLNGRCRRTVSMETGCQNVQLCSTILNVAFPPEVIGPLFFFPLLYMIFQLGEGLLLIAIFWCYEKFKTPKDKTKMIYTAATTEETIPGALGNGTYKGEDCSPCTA
T3 sequence (Q12908 whole entry): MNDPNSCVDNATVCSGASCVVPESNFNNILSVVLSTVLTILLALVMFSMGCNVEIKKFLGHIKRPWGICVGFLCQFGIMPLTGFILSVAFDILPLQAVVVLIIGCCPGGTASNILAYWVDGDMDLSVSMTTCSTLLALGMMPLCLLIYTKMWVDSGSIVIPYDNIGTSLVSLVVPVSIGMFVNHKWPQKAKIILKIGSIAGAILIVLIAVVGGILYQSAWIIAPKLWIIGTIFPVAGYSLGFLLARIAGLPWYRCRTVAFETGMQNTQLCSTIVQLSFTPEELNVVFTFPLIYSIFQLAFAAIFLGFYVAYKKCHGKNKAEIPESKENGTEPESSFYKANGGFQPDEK

With `N[C@@H](CCC(=O)O)C(=O)N[C@H](CSCc1ccccc1)C(=O)O` [(34), H-Glu-D-Cys(Bzl)-OH] (H-Glu-[dC](Bn)-OH) the “% Max. (Gly-Sar)” value (hPEPT1) was 1% and the “% Max. (Gly-Sar)” value (hPEPT2) was 0%.
For `CC(CCC(=O)NCC(=O)NCC1(CC(=O)O)CCCCC1)C1CCC2C3C(O)CC4CC(O)CCC4(C)C3CC(O)C12C` (centres unmarked) [(7a), Cholyl-Gly-Gabapentin], the “% Max. (GDC)” value (IBAT [1]) was 67%.
In the case of N-Phthaloylglycine, the half-life [2] is given as ~0.167 h.
For `C[C@H](CCC(=O)N[C@@H](Cc1ccc2oc(=O)oc2c1)C(=O)O)[C@H]1CC[C@H]2[C@@H]3[C@H](O)C[C@@H]4C[C@H](O)CC[C@]4(C)[C@H]3C[C@H](O)[C@]12C` [(23), Cholyl-Dopa-(3,4-carbonate)], the IC50 (LBAT) was 1.8 µM, the IC50 (IBAT [3]) was 74 µM and the “% Max. (GDC)” value (IBAT [1]) was 25%.
In the case of `N[C@@H](CC(=O)O)C(=O)N[C@@H](CSCc1ccccc1)C(=O)O` [(30), H-Asp-Cys(Bzl)-OH] (H-Asp-Cys(Bn)-OH), the “% Max. (Gly-Sar)” value (hPEPT1) is reported as 55%, the “transport by hPEPT1 (in words)” value (hPEPT1) is reported as “efficient substrates” and the “% Max. (Gly-Sar)” value (hPEPT2) is reported as 78%.
For `N[C@@H](CCC(=O)O)C(=O)N[C@H](COCc1ccccc1)C(=O)O` [(35), H-Glu-D-Ser(Bzl)-OH] (H-Glu-[dS](Bn)-OH), the “% Max. (Gly-Sar)” value (hPEPT1) was 1% and the “% Max. (Gly-Sar)” value (hPEPT2) was 0%.
In the case of `CC(CCC(=O)NC(Cc1ccccc1)C(=O)NCC1(CC(=O)O)CCCCC1)C1CCC2C3C(O)CC4CC(O)CCC4(C)C3CC(O)C12C` (centres unmarked) [(7g), Cholyl-Phe-Gabapentin], the IC50 (LBAT) is reported as 0.5 µM, the IC50 (IBAT [3]) is reported as 92 µM and the EC50 (IBAT [1]) is reported as 140 µM. The “% Max. (GDC)” value (IBAT [1]) was 28%.
For `N[C@@H](CCC(=O)O)C(=O)N[C@@H](COCc1ccccc1)C(=O)O` [(28), H-Glu-Ser(Bzl)-OH] (H-Glu-Ser(Bn)-OH), the “% Max. (Gly-Sar)” value (hPEPT1) was 58%, the “transport by hPEPT1 (in words)” value (hPEPT1) was “efficient substrates” and the “% Max. (Gly-Sar)” value (hPEPT2) was 82%.
For `N[C@@H](CC(=O)O)C(=O)N[C@H](CSCc1ccccc1)C(=O)O` [(36), H-Asp-D-Cys(Bzl)-OH] (H-Asp-[dC](Bn)-OH), the “% Max. (Gly-Sar)” value (hPEPT1) was 2% and the “% Max. (Gly-Sar)” value (hPEPT2) was 0%.
In the case of `N[C@@H](CC(=O)O)C(=O)N[C@H](COCc1ccccc1)C(=O)O` [(37), H-Asp-D-Ser(Bzl)-OH] (H-Asp-[dS](Bn)-OH), the “% Max. (Gly-Sar)” value (hPEPT1) is reported as 1% and the “% Max. (Gly-Sar)” value (hPEPT2) is reported as 0%.
With `CC(CCC(=O)NC(Cc1ccc(O)c(O)c1)C(=O)O)C1CCC2C3C(O)CC4CC(O)CCC4(C)C3CC(O)C12C` (centres unmarked) [(20), Cholyl-Dopa] the IC50 (LBAT) was 5 µM, the IC50 (IBAT [3]) was 83 µM and the “% Max. (GDC)” value (IBAT [1]) was 0%.
Compound `Cl.NCC1(CC(=O)O)CCCCC1` [gabapentin, 1-aminomethyl-1-cyclohexaneacetic acid hydrochloride, reference compound] has a bioavailability [4] of 87 ± 18%, a Tmax ([4]; po) of 2.8 ± 2.5 h and a half-life ([4]; po) of 2.4 ± 0.5 h.
For `N[C@@H](CCC(=O)O)C(=O)N[C@@H](CSCc1ccccc1)C(=O)O` [(27), H-Glu-Cys(Bzl)-OH] (H-Glu-Cys(Bn)-OH), the “% Max. (Gly-Sar)” value (hPEPT1) was 41%, the “transport by hPEPT1 (in words)” value (hPEPT1) was “efficient substrates” and the “% Max. (Gly-Sar)” value (hPEPT2) was 56%.
